In US20250109140A1, “5-[5-(PIPERIDIN-4-YL)THIENO[3,2-C]PYRAZOL-2-YL]INDAZOLE DERIVATIVES AND RELATED COMPOUNDS AS MODULATORS FOR SPLICING NUCLEIC ACIDS AND FOR THE TREATMENT OF PROLIFERATIVE DISEASES” (REMIX THERAPUTICS INC., priority 2022, published 2025):
Like-named read-outs stand apart in the source and are kept apart here.

Key:
Type in all cases: cell-based
HTT mRNA = assay: Splicing RT-qPCR assay, HTT canonical (CJ) and alternative (AJ) junction mRNA; conditions: Homo sapiens; for EC50: AC50 = 50% response in AJ mRNA increase
Protocol: (§1) Compounds described herein were used to modulate RNA transcript abundance in cells. The expression of a target mRNA was measured by detecting the formation of an exon-exon junction in the canonical transcript (CJ). A compound mediated exon-inclusion event was detected by observing an increase in formation of a new junction with an alternative exon (AJ). Real-time qPCR assays were used to detect these splicing switches and interrogate the potency of various compounds towards different target genes. A high-throughput real time quantitative PCR (RT-qPCR) assay was developed to measure these two isoforms of the mRNA (CJ and AJ) for exemplary genes, such as HTT, SMN2, and MYB, together with a control housekeeping gene, GAPDH or GUSB or PPIA, used for normalization. Briefly, the A673 or K562 cell line was treated with various compounds described herein (e.g., compounds of Formula (I)). After treatment, the levels of the HTT, MYB, or SMN2 mRNA targets were determined from each sample of cell lysate by cDNA synthesis followed by qPCR.
(§2) The A673 cell line was cultured in DMEM with 10% FBS. Cells were diluted with full growth media and plated in a 96-well plate (15,000 cells in 100 ul media per well). The plate was incubated at 37° C. with 5% CO2 for 24 hours to allow cells to adhere. An 11-point 3-fold serial dilution of the compounds was made in DMSO then diluted in media in an intermediate plate. Compounds were transferred from the intermediate plate to the cell plate with the top dose at a final concentration of 10 uM in the well. Final DMSO concentration was kept at or below 0.25%. The cell plate was returned to the incubator at 37° C. with 5% CO2 for an additional 24 hours.
(§3) The K562 cell line was cultured in IMDM with 10% FBS. For K562, cells were diluted with full growth media and plated in either a 96-well plate (50,000 cells in 50 uL media per well) or a 384-well plate (8,000-40,000 cells in 45 uL media per well). An 11-point 3-fold serial dilution of the compounds were made in DMSO then diluted in media in an intermediate plate. Compound was transferred from the intermediate plate to the cell plate with the top dose at a final concentration of 10 uM in the well. Final DMSO concentration was kept at or below 0.25%. Final volume was 100 uL for 96-well plate and 50 uL for 384-well plate. The cell plate was then placed in an incubator at 37° C. with 5% CO2 for 24 hours.
(§4) The cells were then gently washed with 50 uL-100 uL cold PBS before proceeding to addition of lysis buffer. 30 uL-50 uL of room temperature lysis buffer with DNAse I (and optionally RNAsin) was added to each well. Cells were shaken/mixed thoroughly at room temperature for 5-10 minutes for lysis to take place and then 3 uL-5 uL of room temperature stop solution was added and wells were shaken/mixed again. After 2-5 minutes, the cell lysate plate was transferred to ice for RT-qPCR reaction setup. The lysates could also be frozen at-80° C. for later use.
(§5) In some cases, a direct lysis buffer was used. An appropriate volume of 3× lysis buffer (10 mM Tris, 150 mM NaCl, 1.5%-2.5% Igepal and 0.1-1 U/uL RNAsin, pH 7.4) was directly added to either K562 or A673 cells in media and mixed by pipetting 3 times. The plates were then incubated at room temperature with shaking/rocking for 20-50 minutes to allow for lysis to take place. After this time, the cell lysate plate was transferred to ice to set up for the RT-qPCR reactions. The lysates could also be frozen at −80° C. for later use.
(§6) To set up 10 uL RT-qPCR reactions, cell lysates were transferred to 384-well qPCR plates containing the master mix according to the table below. The plates were sealed, gently vortexed, and spun down before the run. The volumes were adjusted accordingly in some instances where the reaction was carried in 20 μL. The table below summarizes the components of the RT-qPCR reactions:
(§7) The RT-qPCR reaction was performed using a QuantStudio (ThermoFisher) under the following fast cycling conditions. […]

MYB mRNA = assay: Splicing RT-qPCR assay, MYB canonical (CJ) and alternative (AJ) junction mRNA; conditions: Homo sapiens; for EC50: AC50 = 50% response in AJ mRNA increase
Protocol: as §1, §2, §3, §4, §5, §6, §7

SMN2 mRNA = assay: Splicing RT-qPCR gene panel, SMN2 canonical junction (CJ) mRNA; conditions: Homo sapiens; Table 8; larger gene panel, decrease in CJ mRNA levels
Protocol: as §1, §2, §3, §4, §5, §6, §7

Target C mRNA = assay: Splicing RT-qPCR gene panel, Target C canonical junction (CJ) mRNA; conditions: Homo sapiens; Table 8; larger gene panel, decrease in CJ mRNA levels
Protocol: as §1, §2, §3, §4, §5, §6, §7

[1] = Table 7, RT-qPCR, A673 or K562 cells, 24 hours treatment
[2] = Table 7, IC50 = 50% response in CJ mRNA decrease, RT-qPCR, A673 or K562 cells, 24 hours treatment, read-out: HTT CJ
[3] = Table 8, larger gene panel, decrease in CJ mRNA levels, read-out: HTT CJ IC50
[4] = Table 7, IC50 = 50% response in CJ mRNA decrease, RT-qPCR, A673 or K562 cells, 24 hours treatment, read-out: MYB CJ
[5] = Table 8, larger gene panel, decrease in CJ mRNA levels, read-out: MYB CJ IC50

| Structure (SMILES) | EC50 (HTT mRNA; [1]) | IC50 (HTT mRNA; [2]) | IC50 (HTT mRNA; [3]) | EC50 (MYB mRNA; [1]) | IC50 (MYB mRNA; [4]) | IC50 (MYB mRNA; [5]) | IC50 (SMN2 mRNA) | IC50 (Target C mRNA) |
| --- | --- | --- | --- | --- | --- | --- | --- | --- |
| Cc1cn2nc(-c3nc4sc(C5CCNCC5)cc4s3)cc(C)c2n1 [Compound 112, 4-(2-[2,8-dimethylimidazo[1,2-b]pyridazin-6-yl]thieno[2,3-d][1,3]thiazol-5-yl)piperidine] | < 100 nM | < 100 nM | < 100 nM | < 100 nM | < 100 nM | < 100 nM | < 100 nM | < 100 nM |
| Cc1cn2cc(-c3nc4sc(C5CCNCC5)cc4s3)nc(C)c2n1 [Compound 270, 4-(2-{2,8-dimethylimidazo[1,2-a]pyrazin-6-yl}thieno[2,3-d][1,3]thiazol-5-yl)piperidine] | 100 to 1000 nM | < 100 nM | 100 to 1000 nM | 1000 to 10000 nM | 100 to 1000 nM | 1000 to 10000 nM | < 100 nM | 100 to 1000 nM |
| Cc1cn2nc(N3Cc4sc(C5CCNCC5)cc4C3=O)cc(C)c2n1 [Compound 1127] | < 100 nM | < 100 nM | < 100 nM | 100 to 1000 nM | 100 to 1000 nM | 100 to 1000 nM | < 100 nM | 100 to 1000 nM |
| Cc1cn2nc(-c3nc4sc(C5CNC5)cc4s3)cc(C)c2n1 [Compound 235, 3-(2-{2,8-dimethylimidazo[1,2-b]pyridazin-6-yl}thieno[2,3-d][1,3]thiazol-5-yl) azetidine] | 1000 to 10000 nM | 1000 to 10000 nM | 1000 to 10000 nM | 1000 to 10000 nM | 1000 to 10000 nM | 1000 to 10000 nM | 100 to 1000 nM | 1000 to 10000 nM |
| Cc1cn2cc(-c3nc4sc(C5CCNCC5)cc4s3)nc2c(C)n1 [Compound 239, 4-(2-{6,8-dimethylimidazo[1,2-a]pyrazin-2-yl}thieno[2,3-d][1,3]thiazol-5-yl)piperidine] | 1000 to 10000 nM | 100 to 1000 nM | 1000 to 10000 nM | 1000 to 10000 nM | 1000 to 10000 nM | 1000 to 10000 nM | 100 to 1000 nM | 1000 to 10000 nM |
| Cc1cn2nc(-c3nc4sc(C5=CCOCC5)cc4s3)cc(C)c2n1 [Compound 195, 6-[5-(3,6-dihydro-2H-pyran-4-yl)thieno[2,3-d][1,3]thiazol-2-yl]-2,8-dimethylimidazo[1,2-b]pyridazine] | 100 to 1000 nM | 100 to 1000 nM | 100 to 1000 nM | 100 to 1000 nM | 100 to 1000 nM | 100 to 1000 nM | 100 to 1000 nM | 100 to 1000 nM |
| COc1c(-c2cc3cn(C4CCNCC4)nc3s2)cc2c[nH]nc2c1C [Compound 248] | > 10000 nM | > 10000 nM | > 10000 nM | > 10000 nM | > 10000 nM | > 10000 nM | > 10000 nM | > 10000 nM |
| Cn1cc2cc(-n3cc4sc(C5CCNCC5)cc4n3)ccc2n1 [Compound 100, 2-methyl-5-[5-(piperidin-4-yl)thieno[3,2-c]pyrazol-2-yl]indazole] | 1000 to 10000 nM |  | 1000 to 10000 nM | > 10000 nM | > 10000 nM | > 10000 nM |  | > 10000 nM |

Next, values leading:

| EC50 (HTT mRNA; [1]) | IC50 (HTT mRNA; [2]) | IC50 (HTT mRNA; [3]) | EC50 (MYB mRNA; [1]) | IC50 (MYB mRNA; [4]) | IC50 (MYB mRNA; [5]) | IC50 (SMN2 mRNA) | IC50 (Target C mRNA) | Structure (SMILES) |
| --- | --- | --- | --- | --- | --- | --- | --- | --- |
| < 100 nM | < 100 nM | < 100 nM | 1000 to 10000 nM | 100 to 1000 nM | 1000 to 10000 nM | < 100 nM | 100 to 1000 nM | CN1CCC(c2cc3sc(-c4cc(F)c5nn(C)cc5c4)nc3s2)CC1 [Compound 151, 7-fluoro-2-methyl-5-[5-(1-methylpiperidin-4-yl)thieno[2,3-d][1,3]thiazol-2-yl]indazole] |
| < 100 nM | 100 to 1000 nM | < 100 nM | 100 to 1000 nM | 100 to 1000 nM | 100 to 1000 nM | < 100 nM | 100 to 1000 nM | Cn1cc2cc(-c3nc4sc(N5CCNCC5)cc4s3)cc(F)c2n1 [Compound 134, 7-fluoro-2-methyl-5-[5-(piperazin-1-yl)thieno[2,3-d][1,3]thiazol-2-yl]indazole] |
| < 100 nM | < 100 nM | < 100 nM | < 100 nM | < 100 nM | < 100 nM | < 100 nM | < 100 nM | Cc1cn2cc(-c3nc4sc(C5CCNCC5)cc4s3)cc(Cl)c2n1 [Compound 139] |
| < 100 nM | 100 to 1000 nM | < 100 nM | 100 to 1000 nM | 100 to 1000 nM | 100 to 1000 nM | 100 to 1000 nM | 100 to 1000 nM | Cc1nc2c(F)cc(-c3nc4sc(C5CCNCC5)cc4s3)cc2o1 [Compound 132, 4-fluoro-2-methyl-6-[5-(piperidin-4-yl)thieno[2,3-d][1,3]thiazol-2-yl]-1,3-benzoxazole] |
| 1000 to 10000 nM | 1000 to 10000 nM | 1000 to 10000 nM | 1000 to 10000 nM | 1000 to 10000 nM | 1000 to 10000 nM | < 100 nM | > 10000 nM | Cn1cc2cc(-c3nc4sc(N5CCC6(CCN6)C5)cc4s3)cc(F)c2n1 (stereo not shown) [Compound 233, 5-(5-{1,6-diazaspiro[3.4]octan-6-yl}thieno[2,3-d][1,3]thiazol-2-yl)-7-fluoro-2-methylindazole] |
| 1000 to 10000 nM | 100 to 1000 nM | 1000 to 10000 nM | 1000 to 10000 nM | 100 to 1000 nM | 1000 to 10000 nM | 100 to 1000 nM | 1000 to 10000 nM | Cn1cc2cc(-c3nc4sc(C5(O)CCNCC5)cc4s3)cc(F)c2n1 [Compound 236, 4-[2-(7-fluoro-2-methylindazol-5-yl)thieno[2,3-d][1,3]thiazol-5-yl]piperidin-4-ol] |
| 100 to 1000 nM | 100 to 1000 nM | 100 to 1000 nM | 1000 to 10000 nM | 100 to 1000 nM | 1000 to 10000 nM | < 100 nM | 100 to 1000 nM | Cn1cc2cc(-c3cn4nc(C5CCNCC5)nc4s3)cc(F)c2n1 [Compound 102, 7-fluoro-2-methyl-5-[2-(piperidin-4-yl)-[1,2,4]triazolo[3,2-b][1,3]thiazol-5-yl]indazole] |
| 100 to 1000 nM | 100 to 1000 nM | 100 to 1000 nM | 1000 to 10000 nM | 1000 to 10000 nM | 1000 to 10000 nM | 100 to 1000 nM | 1000 to 10000 nM | Cc1cc(-c2cc3cn([C@H]4CCNC[C@H]4F)nc3s2)cc2cn(C)nc12 (single isomer, unassigned) [Compound 245] |
| > 10000 nM | > 10000 nM | > 10000 nM | > 10000 nM | > 10000 nM | > 10000 nM | > 10000 nM | > 10000 nM | Cn1cc2cc(-c3nc4sc(N5CCC56CCNCC6)cc4s3)cc(F)c2n1 [Compound 201, 1-[2-(7-fluoro-2-methylindazol-5-yl)thieno[2,3-d][1,3]thiazol-5-yl]-1,7-diazaspiro[3.5]nonane] |
| 100 to 1000 nM | 100 to 1000 nM | 100 to 1000 nM | 100 to 1000 nM | 100 to 1000 nM | 100 to 1000 nM | 100 to 1000 nM | 100 to 1000 nM | Cc1cc(N2Cc3sc(C4CCNCC4)cc3C2=O)cc2cn(C)nc12 [Compound 1122] |
